“And” between values parts separate entries of the source, which are not always exact repeats. Equal values may be shown once. Toxic doses and inconclusive results are not listed.

This assay relates to B6C3F1 mice, B16 melanoma ip, median survival T/C. Description: NCI In Vivo Anticancer Drug Screen. Data for tumor model B16 Melanoma (intraperitoneal) in B6C3F1 mice. Conditions: endpoint: median survival time, higher = longer survival. The procedure: The antitumor activity of compounds was measured in mice bearing transplantable tumors. Survival or tumor size were measured and the results are expressed as the measurement made in the treated group (T) divided by the measurement made in the vehicle treated control group (C). The tumor model used in this assay is B16 Melanoma (intraperitoneal) in B6C3F1 mice

Where [1] appears, read: dose: 25.0 mg/kg/injection, schedule: Q01DX009 (ip), vehicle: Klucel (hydroxypropylcellulose) (HPC).
The mark [2] stands for this setting: dose: 50.0 mg/kg/injection, schedule: Q01DX009 (ip), vehicle: Klucel (hydroxypropylcellulose) (HPC).
The mark [3] stands for this setting: dose: 100.0 mg/kg/injection, schedule: Q01DX009 (ip), vehicle: Klucel (hydroxypropylcellulose) (HPC).
Setting [4] is: dose: 3.12 mg/kg/injection, schedule: Q01DX009 (ip), vehicle: saline with Tween-80.
Setting [5] is: dose: 6.25 mg/kg/injection, schedule: Q01DX009 (ip), vehicle: saline with Tween-80.
Where [6] appears, read: dose: 12.5 mg/kg/injection, schedule: Q01DX009 (ip), vehicle: saline with Tween-80.
The mark [7] stands for this setting: dose: 25.0 mg/kg/injection, schedule: Q01DX009 (ip), vehicle: saline with Tween-80.
Setting [8] is: dose: 100.0 mg/kg/injection, schedule: Q01DX009 (ip), vehicle: saline with Tween-80.
Where [9] appears, read: dose: 50.0 mg/kg/injection, schedule: Q01DX009 (ip), vehicle: saline.
Setting [10] is: dose: 100.0 mg/kg/injection, schedule: Q01DX009 (ip), vehicle: saline.
Where [11] appears, read: dose: 25.0 mg/kg/injection, schedule: Q01DX009 (ip), vehicle: distilled water + Tween-80.

For the compound `CC(C)(C)OC(=O)NCCCCC(NC(=O)OCc1ccccc1)C(=O)O` (configuration not stated), the T/C under setting [1] was 109 % of control, the T/C under setting [2] was 94 % of control and the T/C under setting [3] was 98 % of control.
On to `CS(=O)(=O)c1ncc(Br)cn1`, for which the T/C is, setting by setting: under setting [4], 100 % of control; (dose: 3.13 mg/kg/injection, schedule: Q01DX009 (ip), vehicle: saline with Tween-80) 101 % of control; under setting [5], 99 % of control and 105 % of control; under setting [6], 98 % of control and 106 % of control; under setting [7], 96 % of control and 104 % of control; (dose: 50.0 mg/kg/injection, schedule: Q01DX009 (ip), vehicle: saline with Tween-80) 109 % of control and 97 % of control. Moreover, under setting [8], the T/C is 100 % of control and 104 % of control.
For `CC(=O)OCC1OC(OC2=C(CC=C(C)C)C(=O)c3ccccc3C2=O)C(OC(C)=O)C(OC(C)=O)C1OC(C)=O` (configuration not stated), the T/C (dose: 3.12 mg/kg/injection, schedule: Q01DX009 (ip), vehicle: Klucel (hydroxypropylcellulose) (HPC)) was 104 % of control; the T/C (dose: 6.25 mg/kg/injection, schedule: Q01DX009 (ip), vehicle: Klucel (hydroxypropylcellulose) (HPC)) is 95 % of control; the T/C (dose: 12.5 mg/kg/injection, schedule: Q01DX009 (ip), vehicle: Klucel (hydroxypropylcellulose) (HPC)) was 98 % of control; the T/C under setting [1] was 106 % of control; the T/C under setting [2] is 94 % of control.
Take `CC(=O)OCC1OC(n2cc(CBr)nn2)C(OC(C)=O)C(OC(C)=O)C1OC(C)=O` (configuration not stated): the T/C runs as follows: (dose: 3.12 mg/kg/injection, schedule: Q01DX009 (ip), vehicle: saline) 100 % of control; (dose: 6.25 mg/kg/injection, schedule: Q01DX009 (ip), vehicle: saline) 103 % of control; (dose: 12.5 mg/kg/injection, schedule: Q01DX009 (ip), vehicle: saline) 102 % of control; (dose: 25.0 mg/kg/injection, schedule: Q01DX009 (ip), vehicle: saline) 113 % of control and 114 % of control; under setting [9], 117 % of control and 119 % of control; under setting [10], 105 % of control.
Turning to `Oc1cccc2ccccc12`, the T/C by setting is: (dose: 25.0 mg/kg/injection, schedule: Q01DX009 (sc), vehicle: other) 97 % of control; (dose: 50.0 mg/kg/injection, schedule: Q01DX009 (sc), vehicle: other) 94 % of control; (dose: 100.0 mg/kg/injection, schedule: Q01DX009 (sc), vehicle: other) 100 % of control; (dose: 200.0 mg/kg/injection, schedule: Q01DX009 (sc), vehicle: other) 92 % of control.
For the compound `C[n+]1c(-c2cccc(OCCCCCCCOc3cccc(-c4c5cc(N)ccc5c5ccc(N)cc5[n+]4C)c3)c2)c2cc(N)ccc2c2ccc(N)cc21`, the T/C is 98 % of control (dose: 0.02 mg/kg/injection, schedule: Q01DX009 (ip), vehicle: water) and 109 % of control (dose: 0.04 mg/kg/injection, schedule: Q01DX009 (ip), vehicle: water).
As for `O=C(O)CCCCCCCC(=O)O`, the T/C is, setting by setting: (dose: 12.5 mg/kg/injection, schedule: Q01DX009 (ip), vehicle: distilled water + Tween-80) 91 % of control; under setting [11], 101 % of control; (dose: 50.0 mg/kg/injection, schedule: Q01DX009 (ip), vehicle: distilled water + Tween-80) 101 % of control; (dose: 100.0 mg/kg/injection, schedule: Q01DX009 (ip), vehicle: distilled water + Tween-80) 91 % of control.
With `O=C1c2ccccc2CCC1Cl` (configuration not stated), the T/C (dose: 1.5 mg/kg/injection, schedule: Q01DX009 (ip), vehicle: DMSO) is 87 % of control; the T/C (dose: 3.0 mg/kg/injection, schedule: Q01DX009 (ip), vehicle: DMSO) was 86 % of control and 87 % of control and 88 % of control; the T/C (dose: 12.0 mg/kg/injection, schedule: Q01DX009 (ip), vehicle: DMSO) is 89 % of control; the T/C (dose: 1.2 micrograms/kg/injection, schedule: Q01DX009 (ip), vehicle: DMSO) was 91 % of control; the T/C (dose: 2.5 micrograms/kg/injection, schedule: Q01DX009 (ip), vehicle: DMSO) was 86 % of control; the T/C (dose: 5.0 micrograms/kg/injection, schedule: Q01DX009 (ip), vehicle: DMSO) was 87 % of control. Moreover, where the note is “dose: 10.0 micrograms/kg/injection, schedule: Q01DX009 (ip), vehicle: DMSO”, the T/C was 88 % of control.
Turning to `Cc1ccccc1N(C=O)c1ccccc1C`, the T/C under setting [8] is 97 % of control; the T/C (dose: 200.0 mg/kg/injection, schedule: Q01DX009 (ip), vehicle: saline with Tween-80) is 97 % of control; the T/C (dose: 400.0 mg/kg/injection, schedule: Q01DX009 (ip), vehicle: saline with Tween-80) was 97 % of control.
As to `Nc1ncnc2c1c1c(=O)[nH]c(=O)[nH]c1n2C1OC(CO)C(O)C1O` (configuration not stated), the T/C by setting is: under setting [11], 123 % of control; (dose: 200.0 mg/kg/injection, schedule: Q01DX009 (ip), vehicle: distilled water + Tween-80) 172 % of control.
For the compound `NCCc1ccc(O)c(O)c1`, the T/C is 96 % of control under setting [9]; 106 % of control [middle of 4 runs] under setting [10]; 109 % of control [middle of 4 runs] (dose: 200.0 mg/kg/injection, schedule: Q01DX009 (ip), vehicle: saline); 115 % of control [middle of 4 runs] (dose: 400.0 mg/kg/injection, schedule: Q01DX009 (ip), vehicle: saline); 119 % of control (dose: 500.0 mg/kg/injection, schedule: Q01DX009 (ip), vehicle: saline); 114 % of control and 112 % of control and 118 % of control (dose: 600.0 mg/kg/injection, schedule: Q01DX009 (ip), vehicle: saline). Besides, where the note is “dose: 800.0 mg/kg/injection, schedule: Q01DX009 (ip), vehicle: saline”, the T/C is 121 % of control.
Turning to `COc1cc(-c2ccc(Nc3ccccc3C(=O)O)c(OC)c2)ccc1Nc1ccccc1C(=O)O`, the T/C is, setting by setting: (dose: 100.0 mg/kg/injection, schedule: Q01DX009 (ip), vehicle: suspension in saline) 94 % of control; (dose: 200.0 mg/kg/injection, schedule: Q01DX009 (ip), vehicle: suspension in saline) 99 % of control; (dose: 400.0 mg/kg/injection, schedule: Q01DX009 (ip), vehicle: suspension in saline) 98 % of control.
For `N=C(N)c1ccc(/C=C/c2ccc(C(=N)N)cc2)cc1`, the T/C was 101 % of control (dose: 16.0 mg/kg/injection, schedule: Q01DX009 (ip), vehicle: Klucel (hydroxypropylcellulose) (HPC)); 116 % of control (dose: 32.0 mg/kg/injection, schedule: Q01DX009 (ip), vehicle: Klucel (hydroxypropylcellulose) (HPC)); 101 % of control (dose: 32.0 mg/kg/injection, schedule: Q01DX009 (ip), vehicle: saline with Tween-80); 97 % of control (dose: 64.0 mg/kg/injection, schedule: Q01DX009 (ip), vehicle: Klucel (hydroxypropylcellulose) (HPC)); 101 % of control (dose: 64.0 mg/kg/injection, schedule: Q01DX009 (ip), vehicle: saline with Tween-80).
Turning to `O=C1SC(c2ccccc2)=S=C1c1ccccc1`, the T/C is 92 % of control under setting [1]; 97 % of control under setting [2]; 98 % of control under setting [3]; 93 % of control (dose: 200.0 mg/kg/injection, schedule: Q01DX009 (ip), vehicle: Klucel (hydroxypropylcellulose) (HPC)).
Turning to `C=C1C(=O)C23[C@H](O)C1CC[C@H]2[C@]12COC3(O)[C@@H](O)[C@@H]1C(C)(C)CC[C@@H]2O`, the T/C reads like this: (dose: 1.56 mg/kg/injection, schedule: Q01DX009 (ip), vehicle: saline with Tween-80) 98 % of control; under setting [4], 106 % of control; (dose: 4.5 mg/kg/injection, schedule: Q01DX009 (ip), vehicle: Klucel (hydroxypropylcellulose) (HPC)) 97 % of control; under setting [5], 115 % of control; (dose: 9.0 mg/kg/injection, schedule: Q01DX009 (ip), vehicle: Klucel (hydroxypropylcellulose) (HPC)) 93 % of control; under setting [6], 108 % of control. Also, the T/C is, setting by setting: (dose: 18.0 mg/kg/injection, schedule: Q01DX009 (ip), vehicle: Klucel (hydroxypropylcellulose) (HPC)) 99 % of control; under setting [7], 98 % of control.
`COc1cccc2c1C(=O)c1c(O)c3c(c(O)c1C2=O)C[C@@](O)(C(C)=O)C[C@@H]3OC1CC(N(CCO)Cc2ccccc2)C(O)C(C)O1` (some centres not stated): the T/C (dose: 12.5 mg/kg/injection, schedule: Q01DX001 (ip), vehicle: water) is 120 % of control and the T/C (dose: 25.0 mg/kg/injection, schedule: Q01DX001 (ip), vehicle: water) was 116 % of control.

For the origin of these results see PubChem BioAssay AID200 (DTP/NCI, 2004).
